Where a name gives a salt, the structure may show the parent alone.

Consider 54 compounds from patent US20260193244A1 (Protego Biopharma, Inc., priority 2022, published 2026).

For this assay, the system named is IRE1-XBP1s (HEK293 T-REx cells stably expressing the XBP1-RLuc splicing reporter). Put plainly: IRE1-XBP1s activation Assay (XBP1-RLuc splicing reporter, luminescence relative to thapsigargin, with or without IRE1 inhibitor 4μ8C). Type of assay: cell-based. The following applies: 18 h, compound 10 μM, luminescence as percentage signal relative to thapsigargin (Tg) (500 nM, 18 h). As for the experimental part:
IRE1-XBP1s activation Assay: HEK293 T-REx cells stably expressing the XBP1-RLuc splicing reporter were treated with an IRE1-XBP1s activator provided herein (10 μM) in the presence or absence of the IRE1 active site inhibitor 4μ8C (32 μM) for 18 h. Luminescence was shown as the percentage signal relative to thapsigargin (Tg) (500 nM, 18 h).
As for `Cc1ccc(OCCN(C)C(=O)Cn2cc(NC(=O)[C@H]3CC[C@@H](Oc4ccccc4)CC3)cn2)cc1` [Compound 1, (cis)-N-(1-(2-(methyl(2-(p-tolyloxy)ethyl)amino)-2-oxoethyl)-1H-pyrazol-4-yl)-4-phenoxycyclohexanecarboxamide], the activation at 10 µM is < 30%.

As for `Cc1ccc(OCCN(C)C(=O)Cn2cc(NC(=O)c3cccc(Oc4ccccc4)c3)cn2)cc1` [Compound 2], the activation at 10 µM was < 30%.

Regarding `Cc1ccc(OCCN(C)C(=O)Cn2cc(NC(=O)c3ccc(Oc4ccccc4)cc3)cn2)cc1` [Compound 3], the activation at 10 µM was < 30%. As for `O=C(CCOc1ccccc1)Nc1cnn(CC(=O)N2CCCC(Oc3ccc(C(F)(F)F)cc3)C2)c1` (stereo not drawn) [Compound 4, N-(1-(2-oxo-2-(3-(4-(trifluoromethyl)phenoxy)piperidin-1-yl)ethyl)-1H-pyrazol-4-yl)-3-phenoxypropanamide hydrochloride], the activation at 10 µM was in the range of 30 to 50%. In the case of `Cc1ccc(OCCN(C)C(=O)Cn2cc(NC(=O)[C@H]3CC[C@H](Oc4ccccc4)CC3)cn2)cc1` [Compound 5] it was < 30%; in that of `Cc1ccc(OCCN(C)C(=O)Cn2cc(NC(=O)[C@H]3C[C@@H](c4ccccc4)C3)cn2)cc1` [Compound 6], ≥ 50%.

In the case of `Cc1ccc(OCCN(C)C(=O)Cn2cc(NC(=O)[C@@H]3CC[C@@H](Oc4ccccc4)C3)cn2)cc1` [Compound 8, (1R,3R)—N-(1-(2-(methyl(2-(p-tolyloxy)ethyl)amino)-2-oxoethyl)-1H-pyrazol-4-yl)-3-phenoxycyclopentanecarboxamide hydrochloride], the activation at 10 µM is < 30%. Turning to `Cc1ccc(OC2CCN(C(=O)Cn3cc(NC(=O)CCOc4ccccc4)cn3)CC2)cc1` [Compound 9], the activation at 10 µM was < 30%. Next, `Cc1ccc(OC2CCCN(C(=O)Cn3cc(NC(=O)CCOc4ccccc4)cn3)C2)cc1` (stereo not drawn) [Compound 11]: 30 to 50%. For `Cc1ccc(OCCN(C)C(=O)Cn2cc(NC(=O)[C@@H]3CCC[C@H](Oc4ccccc4)C3)cn2)cc1` [Compound 12], the activation at 10 µM was < 30%. Next, `Cc1ccc(OCCN(C)C(=O)Cn2cc(NC(=O)[C@@H]3CCC[C@@H](Oc4ccccc4)C3)cn2)cc1` [Compound 13]: < 30%; `Cc1ccc(OCCN(C)C(=O)Cn2cc(N(C)C(=O)C3CN(Cc4ccccc4)CCO3)cn2)cc1` (stereo not drawn) [Compound 14]: < 30%. Next, `Cc1ccc(OCCN(C)C(=O)Cn2cc(N(C)C(=O)[C@@H]3CCCN(C(=O)c4ccccc4)C3)cn2)cc1` [Compound 15]: < 30%; `Cc1ccc(OCCN(C)C(=O)Cn2cc(N(C)C(=O)[C@@H]3CCC(=O)N(Cc4ccccc4)C3)cn2)cc1` [Compound 16]: < 30%. Consider `Cc1ccc(OCCN(C)C(=O)Cn2cc(N(C)C(=O)C3CCC(Oc4ccccc4)CC3)cn2)cc1` (stereo not drawn) [Compound 17], for which the activation at 10 µM was < 30%.

Regarding `Cc1ccc(C2CCN(C(=O)Cn3cc(NC(=O)CCOc4ccccc4)cn3)C2)cc1` (stereo not drawn) [Compound 18], the activation at 10 µM is < 30%. As to `Cc1ccc(OCCN(C)C(=O)Cn2cc(N(C)C(=O)[C@@H]3CCCC[C@@H]3c3ccccc3)cn2)cc1` [Compound 19], the activation at 10 µM is < 30%. In the case of `Cc1ccc(N2CCCN(C(=O)Cn3cc(NC(=O)CCOc4ccccc4)cn3)CC2)cc1` [Compound 23] it was < 30%; in that of `Cc1ccc(Oc2ccc(N(C)C(=O)Cn3cc(NC(=O)CCOc4ccccc4Cl)cn3)cc2)cc1` [Compound 24], 30 to 50%. Next, `COc1ccccc1OCCC(=O)Nc1cnn(CC(=O)N(C)c2ccc(Oc3ccc(C)cc3)cc2)c1` [Compound 25]: 30 to 50%; `Cc1ccc(Oc2ccc(N(C)C(=O)Cn3cc(NC(=O)CCOc4cccc(C)c4)cn3)cc2)cc1` [Compound 26]: < 30%; `Cc1ccc(OCCC(=O)Nc2cnn(CC(=O)N(C)c3ccc(Oc4ccc(C)cc4)cc3)c2)cc1` [Compound 27]: < 30%.

With `Cc1ccc(C2CCCN(C(=O)Cn3cc(NC(=O)CCOc4ccccc4)cn3)C2)cc1` (stereo not drawn) [Compound 28], the activation at 10 µM was < 30%. Next, `O=C(CCOc1ccccc1)Nc1cnn(CC(=O)Nc2ccc(-n3cncn3)cc2)c1` [Compound 30]: < 30%; `O=C(CCOc1ccccc1)Nc1cnn(CC(=O)Nc2ccc(C3CCCCC3)cc2)c1` [Compound 31]: < 30%; `Cc1ccc(Oc2ccc(N(C)C(=O)Cn3cc(NC(=O)CCOc4ccccc4C)cn3)cc2)cc1` [Compound 32, N-(1-(2-(methyl(4-(p-tolyloxy)phenyl)amino)-2-oxoethyl)-1H-pyrazol-4-yl)-3-(o-tolyloxy)propanamide hydrochloride]: < 30%. With `O=C(CCOc1ccccc1)Nc1cnn(CC(=O)N2CCCN(c3ccc(F)cn3)CC2)c1` [Compound 33], the activation at 10 µM was < 30%.

In the case of `Cc1ccccc1OCCC(=O)Nc1cnn(CC(=O)N(C)c2ccc(Oc3ccccc3)cc2)c1` [Compound 34], the activation at 10 µM is < 30%. In the case of `Cc1cccc(OCCC(=O)Nc2cnn(CC(=O)N(C)c3ccc(Oc4ccccc4)cc3)c2)c1` [Compound 35] it was < 30%. Next, `Cc1ccc(OC2CCCN(C(=O)Cn3cc(NC(=O)CCOc4ccccc4C)cn3)C2)cc1` (stereo not drawn) [Compound 36]: ≥ 50%; `Cc1ccc(OCCC(=O)Nc2cnn(CC(=O)N3CCCC(Oc4ccc(C)cc4)C3)c2)cc1` (stereo not drawn) [Compound 37]: 30 to 50%; `Cc1ccc(OC2CCCN(C(=O)Cn3cc(NC(=O)CCOc4ccc(Cl)cc4)cn3)C2)cc1` (stereo not drawn) [Compound 38]: 30 to 50%. In the case of `Cc1ccc(OC2CCCN(C(=O)Cn3cc(NC(=O)CCOc4ccccc4Cl)cn3)C2)cc1` (stereo not drawn) [Compound 39] it was ≥ 50%.

The compound `COc1ccccc1OCCC(=O)Nc1cnn(CC(=O)N2CCCC(Oc3ccc(C)cc3)C2)c1` (stereo not drawn) [Compound 40] gave an activation at 10 µM of 30 to 50%. For `COc1ccc(OCCC(=O)Nc2cnn(CC(=O)N3CCCC(Oc4ccc(C)cc4)C3)c2)cc1` (stereo not drawn) [Compound 41, 3-(4-methoxyphenoxy)-N-(1-(2-oxo-2-(3-(p-tolyloxy)piperidin-1-yl)ethyl)-1H-pyrazol-4-yl)propanamide hydrochloride], the activation at 10 µM is < 30%.

For the compound `CN(C(=O)Cn1cc(NC(=O)CCOc2ccccc2)cn1)c1ccc(Oc2ccc(C(F)(F)F)cc2)cc1` [Compound 42, N-(1-(2-(methyl(4-(4-(trifluoromethyl)phenoxy)phenyl)amino)-2-oxoethyl)-1H-pyrazol-4-yl)-3-phenoxypropanamide hydrochloride], the activation at 10 µM is < 30%.

As for `Cc1cccc(OCCC(=O)Nc2cnn(CC(=O)N(C)c3ccccc3Oc3ccccc3)c2)c1` [Compound 43], the activation at 10 µM was < 30%. Next, `Cc1ccccc1OCCC(=O)Nc1cnn(CC(=O)N(C)c2ccccc2Oc2ccccc2)c1` [Compound 44]: < 30%.

As to `Cc1ccc(C2CN(C(=O)Cn3cc(NC(=O)CCOc4ccccc4)cn3)CCN2C)cc1` (stereo not drawn) [Compound 45, N-(1-(2-(4-methyl-3-(p-tolyl)piperazin-1-yl)-2-oxoethyl)-1H-pyrazol-4-yl)-3-phenoxypropanamide], the activation at 10 µM was < 30%.

In the case of `COc1ccc(OCCC(=O)Nc2cnn(CC(=O)N3CCCCC(Oc4ccccc4)C3)c2)cc1` (stereo not drawn) [Compound 47], the activation at 10 µM was < 30%. In the case of `Cc1ccc(OCCC(=O)Nc2cnn(CC(=O)N3CCCCC(Oc4ccccc4)C3)c2)cc1` (stereo not drawn) [Compound 48] it was < 30%. In the case of `Cc1ccccc1OCCC(=O)Nc1cnn(CC(=O)N2CCCCC(Oc3ccccc3)C2)c1` (stereo not drawn) [Compound 49] it was < 30%; in that of `O=C(CCOc1ccc(Cl)cc1)Nc1cnn(CC(=O)N2CCCCC(Oc3ccccc3)C2)c1` (stereo not drawn) [Compound 50], < 30%. In the case of `COc1ccccc1OCCC(=O)Nc1cnn(CC(=O)N2CCCCC(Oc3ccccc3)C2)c1` (stereo not drawn) [Compound 51] it was < 30%; in that of `O=C(CCOc1ccccc1)Nc1cnn(CC(=O)N2CCCN(Cc3ccncc3)CC2)c1` [Compound 52, N-(1-(2-oxo-2-(4-(pyridin-4-ylmethyl)-1,4-diazepan-1-yl)ethyl)-1H-pyrazol-4-yl)-3-phenoxypropanamide], < 30%; in that of `Cc1ccccc1OCCC(=O)Nc1cnn(CC(=O)N(C)c2ccc(Oc3ccc(C(F)(F)F)cc3)cc2)c1` [Compound 53], < 30%. `CN(C(=O)Cn1cc(NC(=O)CCOc2ccccc2)cn1)c1ccc(Oc2ccc(C(F)(F)F)cc2)c(F)c1` [Compound 54]: the activation at 10 µM is < 30%. In the case of `Cc1ccc(Oc2c(F)cc(N(C)C(=O)Cn3cc(NC(=O)CCOc4ccccc4)cn3)cc2F)cc1` [Compound 55] it was < 30%. Next, `Cc1ccc(Oc2ccccc2N(C)C(=O)Cn2cc(NC(=O)CCOc3ccccc3)cn2)cc1` [Compound 57]: < 30%; `Cc1ccc(C(F)(F)c2ccc(N(C)C(=O)Cn3cc(NC(=O)CCOc4ccccc4)cn3)cc2)cc1` [Compound 58]: < 30%; `Cc1ccc(C2=CC(C)(C)Oc3cc(N(C)C(=O)Cn4cc(NC(=O)CCOc5ccccc5)cn4)ccc32)cc1` [Compound 59, N-(1-(2-((2,2-dimethyl-4-(p-tolyl)-2H-chromen-7-yl)(methyl)amino)-2-oxoethyl)-1H-pyrazol-4-yl)-3-phenoxypropanamide]: < 30%. Next, `Cc1ccc(OCCN(C)C(=O)Cn2cc(NC(=O)C3COc4ccccc4C3)cn2)cc1` (stereo not drawn) [Compound 60]: < 30%; `Cc1ccc(OCCN(C)C(=O)Cn2cc(NC(=O)C3CCCN(c4ccccc4)C3)cn2)cc1` (stereo not drawn) [Compound 61]: < 30%; `COc1ccc2c(c1)CC(C(=O)Nc1cnn(CC(=O)N(C)CCOc3ccc(C)cc3)c1)CO2` (stereo not drawn) [Compound 63]: < 30%.
